Like-named read-outs stand apart in the source and are kept apart here.

What is called IC50 is the midpoint of a concentration-inhibition curve. As a reminder, the Cmax is the peak of the concentration-time curve. By Tmax is commonly meant the time from dosing to the highest level. For orientation: inhibition means the percentage by which the read-out fell short of the control.

One data set addresses Human plasma kallikrein (Homo sapiens (Human), UniProt P03952). The data set can be described thus: Determination of the IC50 for plasma kallikrein. Type of data set: biochemical. The note with it: read-out: IC50 (human PKal). The procedure: Determination of the IC50 for Plasma Kallikrein
Human plasma kallikrein (Protogen) was incubated at 25° C. with the fluorogenic substrate H-DPro-Phe-Arg-AFC and various concentrations of the test compound. Residual enzyme activity (initial rate of reaction) was determined by measuring the change in […] at 410 nm and the IC50 value for the test compound was determined.

For another data set, the target named is Human KLK1 (Homo sapiens (Human), UniProt P06870). The data set can be described thus: Determination of the IC50 for KLK1. Type of data set: biochemical. The note with it: human KLK1, 25° C., substrate H-DVal-Leu-Arg-AFC. The procedure: Determination of the IC50 for KLK1
Human KLK1, sequence (P06870 25-262): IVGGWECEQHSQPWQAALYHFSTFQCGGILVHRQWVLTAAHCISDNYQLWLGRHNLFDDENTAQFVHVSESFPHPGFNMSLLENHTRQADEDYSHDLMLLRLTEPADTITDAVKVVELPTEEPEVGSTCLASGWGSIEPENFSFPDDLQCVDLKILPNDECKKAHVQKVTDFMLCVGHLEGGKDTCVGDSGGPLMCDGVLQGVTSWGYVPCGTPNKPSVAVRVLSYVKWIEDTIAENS
Human KLK1 (Callbiochem) was incubated at 25° C. with the fluorogenic substrate H-DVal-Leu-Arg-AFC and various concentrations of the test compound. Residual enzyme activity (initial rate of reaction) was determined by measuring the change in […] at 410 nm and the IC50 value for the test compound was determined.

The nature of data set [1]: Pharmacokinetics following a single oral dose in rats. The note with it: rat, male Sprague-Dawley rats, nominal 10 mg/kg in 10% DMSO/10% cremophor/80% SWFI, plasma, actual dose 7.6 mg/kg (Example 115), 8.4 mg/kg (Example 85). The class given is in vivo. The procedure: Pharmacokinetic studies of the compounds in Table 15 were performed to assess the pharmacokinetics following a single oral dose in male Sprague-Dawley rats. Two rats were given a single po dose of 5 mL/kg of a nominal 2 mg/mL (10 mg/kg) composition of test compound in 10% DMSO/10% cremophor/80% SWFI. Following dosing, blood samples were collected over a period of 24 hours. Sample times were 5, 15 and 30 minutes then 1, 2, 4, 6, 8 and 12 hours. Following collection, blood samples were centrifuged and the plasma fraction analysed for concentration of test compound by LCMS.

In a further data set the target is Human FXIa (Homo sapiens (Human), UniProt P03951). Put plainly: Determination of the % inhibition for FXIa. The class given is biochemical. The note with it: read-out: % Inhibition @ 40 μM (human FXIa). The method, then:
Determination of the % Inhibition for FXIa
Human FXIa (Enzyme Research Laboratories) was incubated at 25° C. with the fluorogenic substrate Z-Gly-Pro-Arg-AFC and 40 μM of the test compound. Residual enzyme activity (initial rate of reaction) was determined by measuring the change in […].

Setting [2] is: 40 μM of the test compound, human FXIa, 25° C.

Human plasma kallikrein, sequence (P03952 391-638): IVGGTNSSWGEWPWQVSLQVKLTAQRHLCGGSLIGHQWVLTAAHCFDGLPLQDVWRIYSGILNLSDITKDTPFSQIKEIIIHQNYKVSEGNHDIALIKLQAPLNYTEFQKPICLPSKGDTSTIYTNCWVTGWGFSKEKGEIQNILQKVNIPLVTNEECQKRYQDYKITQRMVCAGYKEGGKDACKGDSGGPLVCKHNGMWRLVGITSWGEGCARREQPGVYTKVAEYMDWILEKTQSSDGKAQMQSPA
Human plasma kallikrein, sequence (P03952 20-390 partner): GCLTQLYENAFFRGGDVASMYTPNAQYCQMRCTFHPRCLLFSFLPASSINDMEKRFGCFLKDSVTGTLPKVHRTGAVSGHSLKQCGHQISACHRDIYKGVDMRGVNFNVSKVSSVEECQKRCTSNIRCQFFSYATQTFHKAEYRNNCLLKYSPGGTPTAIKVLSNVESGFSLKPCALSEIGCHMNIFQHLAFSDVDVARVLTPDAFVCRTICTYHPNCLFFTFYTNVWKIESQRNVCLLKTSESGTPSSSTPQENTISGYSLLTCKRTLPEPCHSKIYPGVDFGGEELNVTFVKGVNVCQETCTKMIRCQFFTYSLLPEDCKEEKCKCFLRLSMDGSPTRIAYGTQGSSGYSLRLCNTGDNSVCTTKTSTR
Human FXIa, sequence (P03951 388-625 limits assumed): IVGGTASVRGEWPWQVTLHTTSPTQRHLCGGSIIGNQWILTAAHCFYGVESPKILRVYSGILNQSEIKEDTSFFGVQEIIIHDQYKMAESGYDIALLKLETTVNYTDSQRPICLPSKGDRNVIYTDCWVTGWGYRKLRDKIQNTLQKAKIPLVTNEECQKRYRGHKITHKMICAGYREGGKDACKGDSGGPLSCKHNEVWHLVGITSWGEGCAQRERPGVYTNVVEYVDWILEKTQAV
Human FXIa, sequence (P03951 19-387 partner limits assumed): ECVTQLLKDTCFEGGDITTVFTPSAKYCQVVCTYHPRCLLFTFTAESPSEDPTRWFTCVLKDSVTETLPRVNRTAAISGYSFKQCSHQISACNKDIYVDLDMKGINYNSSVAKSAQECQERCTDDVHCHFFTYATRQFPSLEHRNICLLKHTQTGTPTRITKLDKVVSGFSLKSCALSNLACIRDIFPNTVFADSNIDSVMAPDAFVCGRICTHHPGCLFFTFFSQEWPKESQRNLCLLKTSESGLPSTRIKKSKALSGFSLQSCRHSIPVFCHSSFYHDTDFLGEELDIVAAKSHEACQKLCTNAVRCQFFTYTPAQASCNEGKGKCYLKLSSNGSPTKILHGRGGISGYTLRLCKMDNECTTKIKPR

Regarding `C[C@@H](CNC(=O)c1cn(Cc2ccc(Cn3ccccc3=O)cc2)nc1N)Oc1cccc(Cl)c1` [Example 115, 3-Amino-N-[(2S)-2-(3-chlorophenoxy)propyl]-1-({4-[(2-oxopyridin-1-yl)methyl]phenyl}methyl)-pyrazole-4-carboxamide], at Human plasma kallikrein, the half-inhibitory concentration (IC50) turned out to be 0.0056 µM. This compound gave a half-maximal inhibitory concentration (IC50) against Human KLK1 above 40 µM. Also, in data set [1], the peak concentration (Cmax) stood at 538 ng/mL and the Tmax was 30 min.
For `Cc1cccn(Cc2ccc(Cn3cc(C(=O)NCCOc4cccc(Cl)c4)c(N)n3)cc2)c1=O` [Example 85, 3-amino-N-[2-(3-chlorophenoxy)ethyl]-1-({4-[(3-methyl-2-oxopyridin-1-yl)methyl]phenyl}methyl)pyrazole-4-carboxamide], the IC50 on Human plasma kallikrein turned out to be 0.0035 µM. Further, the IC50 against Human KLK1 was above 40 µM. Moreover, the inhibition at 40 µM at Human FXIa (setting [2]) was determined as 1%. For the same compound, in data set [1], the peak concentration (Cmax) was determined as 228 ng/mL and the Tmax is 45 min.
`COCc1nn(Cc2ccc(Cn3ccccc3=O)cc2)cc1C(=O)NCCOc1ccccc1Cl` [Example 6, N-[2-(2-chlorophenoxy)ethyl]-3-(methoxymethyl)-1-({4-[(2-oxopyridin-1-yl)methyl]phenyl}methyl)pyrazole-4-carboxamide]: the IC50 at Human plasma kallikrein is 1.89 µM; against Human KLK1, above 10 µM. The inhibition at 40 µM at Human FXIa (setting [2]) came out at 0%.
The corresponding values for `C[C@H](NC(=O)c1cn(Cc2ccc(Cn3ccccc3=O)cc2)nc1N)C(=O)N(C)c1cccc(Cl)c1` [Example 116, (2S)-2-{[3-amino-1-({4-[(2-oxopyridin-1-yl)methyl]phenyl}methyl)pyrazol-4-yl]formamido}-N-(3-chlorophenyl)-N-methylpropanamide] are 0.39 µM, above 40 µM and 0%.
For `CCOC(=O)c1cccc(Cn2cc(C(=O)NCCOc3cccc(Cl)c3)c(N)n2)c1` [Example 62, ethyl 3-[(3-amino-4-{[2-(3-chlorophenoxy)ethyl]carbamoyl}pyrazol-1-yl)methyl]benzoate] the same measures were 7.15 µM, above 40 µM and 4%.
For `CN(C)c1nn(Cc2ccc(Cn3ccccc3=O)cc2)cc1C(=O)NCCOc1cccc(Cl)c1` [Example 35, N-[2-(3-chlorophenoxy)ethyl]-3-(dimethylamino)-1-({4-[(2-oxopyridin-1-yl)methyl]phenyl}methyl)pyrazole-4-carboxamide] the same measures were 0.122 µM, above 40 µM and 1%.
Take `COCc1nn(Cc2ccc(Cn3ccccc3=O)cc2)cc1C(=O)NCCOc1cc(Cl)ccc1F` [Example 9, N-[2-(5-chloro-2-fluorophenoxy)ethyl]-3-(methoxymethyl)-1-({4-[(2-oxopyridin-1-yl)methyl]phenyl}methyl)pyrazole-4-carboxamide]: the values for the concentration for half-maximal inhibition (IC50) at Human plasma kallikrein and against Human KLK1 were 0.191 µM and above 10 µM, respectively. At Human FXIa (setting [2]), the inhibition at 40 µM turned out to be 0%.
Consider `Cc1cc(Cl)cc(OCCNC(=O)c2cn(Cc3ccc(Cn4ccccc4=O)cc3)nc2N)c1` [Example 33, 3-amino-N-[2-(3-chloro-5-methylphenoxy)ethyl]-1-({4-[(2-oxopyridin-1-yl)methyl]phenyl}methyl)pyrazole-4-carboxamide], for which the IC50 at Human plasma kallikrein was 0.114 µM; at Human KLK1, above 40 µM. Moreover, the inhibition at 40 µM at Human FXIa (setting [2]) is 29%.
On to `Nc1nn(Cc2ccc(Oc3ccccc3)cc2)cc1C(=O)NCCOc1cccc(Cl)c1` [Example 71, 3-amino-N-[2-(3-chlorophenoxy)ethyl]-1-[(4-phenoxyphenyl)methyl]pyrazole-4-carboxamide], for which the concentration for half-maximal inhibition (IC50) on Human plasma kallikrein was 2.07 µM; at Human KLK1 it was above 40 µM. Further, the inhibition at 40 µM on Human FXIa (setting [2]) came to 0%.
Consider `C[C@@H](NC(=O)c1cn(Cc2ccc(Cn3ccccc3=O)cc2)nc1N)C(=O)N(C)c1cccc(Cl)c1` [Example 117, (2R)-2-{[3-amino-1-({4-[(2-oxopyridin-1-yl)methyl]phenyl}methyl)pyrazol-4-yl]formamido}-N-(3-chlorophenyl)-N-methylpropanamide], for which the IC50 was 3.02 µM on Human plasma kallikrein and above 40 µM against Human KLK1. The inhibition at 40 µM at Human FXIa (setting [2]) amounted to 4%.
For the compound `Nc1nn(Cc2ccc(Cn3ccccc3=O)cc2)cc1C(=O)N[C@H]1CCN(c2cccc(Cl)c2)C1=O` [Example 107, 3-amino-N-[(3S)-1-(3-chlorophenyl)-2-oxopyrrolidin-3-yl]-1-({4-[(2-oxopyridin-1-yl)methyl]phenyl}methyl)pyrazole-4-carboxamide], the IC50 at Human plasma kallikrein is 0.0048 µM; against Human KLK1, above 40 µM. The inhibition at 40 µM at Human FXIa (setting [2]) amounted to 2%.
The corresponding values for `CNC(=O)CNc1cc(Cn2cc(C(=O)NCCOc3cccc(Cl)c3)c(N)n2)ccn1` [Example 68, 3-amino-N-[2-(3-chlorophenoxy)ethyl]-1-[(2-{[(methylcarbamoyl)methyl]amino}pyridin-4-yl)methyl]pyrazole-4-carboxamide] are above 10 µM, above 40 µM and 0%.
With `Nc1nn(Cc2ccc(Cn3ccccc3=O)cc2)cc1C(=O)N[C@H]1CCN(Cc2cccc(Cl)c2)C1` [Example 109, 3-amino-N-[(3S)-1-[(3-chlorophenyl)methyl]pyrrolidin-3-yl]-1-({4-[(2-oxopyridin-1-yl)methyl]phenyl}methyl)pyrazole-4-carboxamide], the IC50 is 0.384 µM on Human plasma kallikrein and above 40 µM against Human KLK1. Besides, the inhibition at 40 µM on Human FXIa (setting [2]) was found to be 0%.
The corresponding values for `Nc1nn(Cc2ccc(COc3ncccn3)cc2)cc1C(=O)NCCOc1cccc(Cl)c1` [Example 75, 3-amino-N-[2-(3-chlorophenoxy)ethyl]-1-({4-[(pyrimidin-2-yloxy)methyl]phenyl}methyl)pyrazole-4-carboxamide] are 3.67 µM, above 40 µM and 0%.
`Nc1nn(Cc2cccc(N3CCCC3)n2)cc1C(=O)NCCOc1cccc(Cl)c1` [Example 53, 3-amino-N-[2-(3-chlorophenoxy)ethyl]-1-{[6-(pyrrolidin-1-yl)pyridin-2-yl]methyl}pyrazole-4-carboxamide]: the values for the half-inhibitory concentration (IC50) on Human plasma kallikrein and on Human KLK1 were 4.73 µM and above 40 µM, respectively. For the same compound, at Human FXIa (setting [2]), the inhibition at 40 µM amounted to 0%.
Turning to `Nc1nn(Cc2cccc(Br)c2)cc1C(=O)NCCOc1cccc(Cl)c1` [Example 56, 3-amino-1-[(3-bromophenyl)methyl]-N-[2-(3-chlorophenoxy)ethyl]pyrazole-4-carboxamide], the concentration for half-maximal inhibition (IC50) on Human plasma kallikrein was 8.49 µM; at Human KLK1, above 40 µM. For the same compound, the inhibition at 40 µM at Human FXIa is 0%.
`Nc1nn(Cc2nc(Cc3ccccc3)no2)cc1C(=O)NCCOc1cccc(Cl)c1` [Example 90, 3-amino-1-[(3-benzyl-1,2,4-oxadiazol-5-yl)methyl]-N-[2-(3-chlorophenoxy)ethyl]pyrazole-4-carboxamide]: the IC50 is above 10 µM at Human plasma kallikrein and above 40 µM on Human KLK1. For the same compound, the inhibition at 40 µM on Human FXIa (setting [2]) was found to be 0%.
Consider `Nc1nn(Cc2ccc(-c3ncccn3)cc2)cc1C(=O)NCCOc1cccc(Cl)c1` [Example 79, 3-amino-N-[2-(3-chlorophenoxy)ethyl]-1-{[4-(pyrimidin-2-yl)phenyl]methyl}pyrazole-4-carboxamide], for which the IC50 was 5.87 µM at Human plasma kallikrein and above 40 µM against Human KLK1. Further, on Human FXIa (setting [2]), the inhibition at 40 µM is 9%.
For `Nc1nn(Cc2ccc(Br)cc2)cc1C(=O)NCCOc1cccc(Cl)c1` [Example 55, 3-amino-1-[(4-bromophenyl)methyl]-N-[2-(3-chlorophenoxy)ethyl]pyrazole-4-carboxamide], the 50% inhibitory concentration (IC50) was 6.41 µM at Human plasma kallikrein and above 40 µM against Human KLK1. Also, the inhibition at 40 µM on Human FXIa is 80%.

The values are drawn from patent publication US10781181B2, “N-((het) arylmethyl)-heteroaryl-carboxamides compounds as plasma kallikrein inhibitors” (Kalvista Pharmaceuticals Limited, priority 2014, dated 2020).
